According to patent US20030139391A1 (priority 2000, published 2003):
Marks after values point to notes of the source that are not given here.

Assays:
[1] = tested on: Patients diagnosed with Alzheimer's Disease; test: ADCS/ADL scale in 5-month slow-titration trial; type: in vivo, human
Text: Subjects in the Placebo group received 21 weeks (5 months) of placebo medication.
The ADCS/ADL scale is a 23-item informant-based assessment scale measuring widely applicable daily activities appropriate for patients in the mild to moderate category of Alzheimer's Disease. The 23 items were selected for measurement from the larger set of 45 items studied by Galasko et al (Alzheimer Disease and Associated Disorders, Vol 11, Suppl. 2, 1997). These individual items were scored from 0-3 to […], depending on the question, with a possible total score of 78. A higher score indicated a higher functioning patient.
An additional secondary indication captures overall changes in Activities of daily Living (ADL) performances as measured by the Alzheimer's Disease Cooperative Study Activities of Daily Living (ACDS/ADL) scale. As mentioned above this scale is comprised of 23 items that have been tested and validated in patients with mild to moderately severe Alzheimer's disease.

[2] = in humans; cited from earlier work

## COc1ccc2c3c1O[C@H]1C[C@@H](O)C=C[C@@]31CCN(C)C2 [GAL, galantamine]
[1]; LOCF, 8 mg/day
  Change in Total ADL score from baseline at Month 5, Mean (SE): −3.2 (0.79)
[1]; LOCF, 24 mg/day
  Change in Total ADL score from baseline at Month 5, Mean (SE): −1.5 (0.56)**
[1]; observed case, 8 mg/day
  Change in Total ADL score from baseline at Month 5, Mean (SE): −3.1 (0.91)
[1]; observed case, 16 mg/day
  Change in Total ADL score from baseline at Month 5, Mean (SE): −0.5 (0.55)***^†
[1]; observed case, 24 mg/day
  Change in Total ADL score from baseline at Month 5, Mean (SE): −1.6 (0.61)**
[2]
  passing the blood-brain barrier: capable of passing the blood-brain barrier
